# Laboratory results taken from US20260027145A1 (priority 2022, published 2026).
# Entries after “also recorded” stand apart in the source; their conditions may differ. Read-outs that look alike come from different tables or passages of the source.
# Legend:
# resting pan-T cells [1] = assay type: cell-based, human
# IFITM1 [2] = assay type: cell-based, human
# resting pan-T cells [3] = tested on: resting pan-T cells
# [4] = tested on: phosphorylated SAMHD1 (pSAMHD1); assay type: cell-based, human; conditions: CD4+ and CD8+ T cells; for proportion of pSAMHD1 to total SAMHD1: IL-7 15 ng/mL, IL-15 15 ng/mL or both
# Description: The effect of IL-7 and IL-15 on phosphorylated SAMHD1 (pSAMHD1) and IFITM1 expression was assessed. CD4+ and CD8+ T cells were treated with either IL-2 (100 U/mL), IL-15 (15 ng/mL), IL-7 (15 ng/mL), or a composition comprising both IL-7 and IL-15. Cells were activated with anti-CD3/[…] antibody coated beads at a ratio of 3:1, and then cells were assessed for expression of IFITM1 or pSAMHD1. Aggregate densitometry across multiple donors are shown in FIG. 3A (CD8+) and FIG. 3B (CD4+), while representative western blots are also depicted in FIG. 3C (CD8+) and FIG. 3D (CD4+).
# IFITM1 [5] = assay type: cell-based, human; remark: listed apart in the source
# IFITM1 [6] = assay type: cell-based, human; remark: listed apart in the source
# CD8+ cells = assay type: cell-based, human
# resting pan-T cells [7] = assay type: cell-based, human; remark: listed apart in the source
# pSAMHD1 = assay type: cell-based, human
# IFITM1 [8] = assay type: cell-based, human; remark: listed apart in the source
molecule,measurement,setting,value
"C[C@@H]1[C@H](O)[C@@H](C)/C=C/C=C/C=C/C=C/C=C/C=C/C=C/[C@H](O[C@@H]2O[C@H](C)[C@@H](O)[C@H](N)[C@@H]2O)C[C@@H]2O[C@](O)(C[C@@H](O)C[C@@H](O)[C@H](O)CC[C@@H](O)C[C@@H](O)CC(=O)O[C@H]1C)C[C@H](O)[C@H]2C(=O)O [AmphoB, Amphotericin B]",concentrations at which gain in transduction efficiency is seen,resting pan-T cells [1],≥ 0.1 µM
same,transduction efficiency (% GFP),resting pan-T cells [1],increased transduction efficiency
same,restriction factor IFITM1 (western blot),IFITM1 [2],inactivation or loss
same,CD8 and CD4 cell number,resting pan-T cells [3],slightly reduced
IL-15: recombinant cytokine,proportion of pSAMHD1 to total SAMHD1,[4],increased
same,IFITM1 expression,IFITM1 [5],similarly increased
"CO[C@H]1C[C@@H]2CC[C@@H](C)[C@@](O)(O2)C(=O)C(=O)N2CCCC[C@H]2C(=O)O[C@H]([C@H](C)C[C@@H]2CC[C@@H](OC(=O)C(C)(CO)CO)[C@H](OC)C2)CC(=O)[C@H](C)/C=C(\C)[C@@H](O)[C@@H](OC)C(=O)[C@H](C)C[C@H](C)/C=C/C=C/C=C/1C [TEM, temsirolimus]",IFITM1 protein expression,IFITM1 [6],pronounced loss of IFITM1 protein expression
same,transduction efficiency (viral copy number per diploid genome),CD8+ cells,Increased transduction efficiency
same,transduction of the GFP transgene (% GFP),resting pan-T cells [1],enhance transduction
same,CD3 number,resting pan-T cells [3],remained generally consistent
same,CD8 and CD4 T-cells (cell counts),resting pan-T cells [3],reduced
IL-7: recombinant cytokine,levels of pSAMHD1,[4]; IL-7 15 ng/mL pre-treatment,increased levels of pSAMHD1
same,proportion of pSAMHD1 to total SAMHD1,[4],increased
same,IFITM1 expression,IFITM1 [5],similarly increased
same,transduction efficiency (% GFP),resting pan-T cells [7],did not lead to dose-dependent differences in transduction efficiency
same,pSAMHD1 levels,pSAMHD1,increase in pSAMHD1 levels
same,transduction efficiency (% GFP) with cytokine pretreatment,resting pan-T cells [1],positively impact transduction; also recorded: increased transduction efficiency
same,cytotoxicity (Nalm6 loss related to untransduced controls),Nalm6 cells,Increased cytotoxicity
CO[C@H]1C[C@@H]2CC[C@@H](C)[C@@](O)(O2)C(=O)C(=O)N2CCCC[C@H]2C(=O)O[C@H]([C@H](C)C[C@@H]2CC[C@@H](O)[C@H](OC)C2)CC(=O)[C@H](C)/C=C(\C)[C@@H](O)[C@@H](OC)C(=O)[C@H](C)C[C@H](C)/C=C/C=C/C=C/1C [rapamycin],downregulation of IFITM1 expression,IFITM1 [8],20-35%
same,reduction of IFITM1 expression,IFITM1 [8],5-40%
